Test systems include SK-MEL-2 melanoma; ACHN renal; SN12C renal; SNB-19 CNS; M14 melanoma; HOP-62 NSCLC; SNB-75 CNS; DU-145 prostate; K-562 leukemia; CAKI-1 renal.
Common to all, as to assay: NCI tumour cell line growth inhibition, 48 h

Several values for one entry are separate records, joined by “and”; a condition that tells them apart may be missing. Equal entries are not always repeated.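 Step 1: Grow cells in 96-well plates. Step 2: Expose to compound for 48 hours at 5 concentrations. Step 3: Interpolate endpoints linearly; if unreached, use highest concentration. Abbreviation: GI50, concentration required for 50% inhibition of growth. TGI denotes the concentration required for complete inhibition of growth.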

In the case of `CCc1cc2c(O)c(c1)Cc1cc(CC)cc(c1O)Cc1cc(CC)cc(c1O)Cc1cc(CC)cc(c1O)Cc1cc(CC)cc(c1O)Cc1cc(CC)cc(c1O)Cc1cc(CC)cc(c1O)C2`, the TGI is greater than 100 µM in the experiment with SK-MEL-2 melanoma; greater than 100 µM in the experiment on ACHN renal; greater than 100 µM in the experiment on SN12C renal; 71.7 µM in the experiment with SNB-19 CNS; greater than 100 µM in the experiment with M14 melanoma; greater than 100 µM in the experiment with HOP-62 NSCLC. In the experiment with SNB-75 CNS, this molecule returned a TGI of 61.4 µM.

For `CC1=C(C(=O)Nc2ccc(F)c(Cl)c2)C(c2cccc(Oc3ccccc3)c2)NC(=S)N1` (centres undefined), the GI50 is 21.2 µM in the experiment on DU-145 prostate; 9.72 µM with SK-MEL-2 melanoma; 10.7 µM in the experiment with K-562 leukemia; 12.3 µM in the experiment on ACHN renal; 9.27 µM with SN12C renal; 32.2 µM in the experiment on SNB-19 CNS. The GI50 in the experiment with M14 melanoma was 12 µM; in the experiment with HOP-62 NSCLC, 14.7 µM; with CAKI-1 renal, 15.9 µM. For the same molecule, the TGI with DU-145 prostate was greater than 50 µM; with SK-MEL-2 melanoma it was 27.2 µM; with K-562 leukemia, 31.6 µM; with ACHN renal it was 36.1 µM; in the experiment on SN12C renal it was 17.6 µM; in the experiment with SNB-19 CNS, greater than 50 µM. The TGI with M14 melanoma is 27.3 µM; with HOP-62 NSCLC, 30.1 µM; in the experiment with CAKI-1 renal it was greater than 50 µM.

Regarding `C/C=C/C(=O)[O-].C/C=C/C(=O)[O-].N.N.N.N.[Co+3].[O-][Cl+3]([O-])([O-])[O-]`, the GI50 in the experiment on SK-MEL-2 melanoma, with K-562 leukemia, with ACHN renal, in the experiment on SN12C renal, with SNB-19 CNS and with M14 melanoma was greater than 100 µM throughout. For the same molecule, the GI50 in the experiment with HOP-62 NSCLC is greater than 100 µM; with SNB-75 CNS, 47.4 µM. In addition, the TGI with SK-MEL-2 melanoma, with K-562 leukemia, in the experiment on ACHN renal, in the experiment on SN12C renal, in the experiment on SNB-19 CNS and in the experiment on M14 melanoma was greater than 100 µM each time. In addition, the TGI with HOP-62 NSCLC and in the experiment with SNB-75 CNS was greater than 100 µM in each case.

In the case of `CCCCNC(=S)OCCC(C)CCCC(C)C` (centres undefined), the TGI in the experiment with SK-MEL-2 melanoma, in the experiment on K-562 leukemia, in the experiment with ACHN renal, in the experiment with SN12C renal, in the experiment with SNB-19 CNS and with M14 melanoma was greater than 100 µM each time. In addition, the TGI in the experiment with HOP-62 NSCLC, with CAKI-1 renal and in the experiment with SNB-75 CNS was greater than 100 µM each time.

Consider `CC1=CP(=O)(c2ccccc2)C=C(C)C1=C(Cl)Cl` (centres undefined), for which the TGI with K-562 leukemia was 13.6 µM; in the experiment on SN12C renal, 81.8 µM; in the experiment with SNB-19 CNS it was 32.8 µM; in the experiment with M14 melanoma, 17.9 µM; in the experiment with HOP-62 NSCLC, 12.5 µM; in the experiment on SNB-75 CNS it was greater than 100 µM.

On to `COc1ccc2c(c1)/C(=C\c1c(-c3cc(OC)ccc3OC)nc3sccn13)C(=O)N2`, for which the GI50 is 1.77 µM in the experiment on SK-MEL-2 melanoma; 5.88 µM in the experiment with K-562 leukemia; 2.37 µM with ACHN renal; 1.72 µM in the experiment on SNB-19 CNS; 7.14 µM and 1.71 µM with M14 melanoma; 1.75 µM in the experiment on HOP-62 NSCLC. The GI50 in the experiment on CAKI-1 renal is 3.82 µM. Besides, the TGI amounted to 4.2 µM in the experiment with SK-MEL-2 melanoma; 9.74 µM with ACHN renal; 3.54 µM with SNB-19 CNS; 3.09 µM in the experiment on M14 melanoma; 3.29 µM in the experiment with HOP-62 NSCLC; 13.8 µM in the experiment on CAKI-1 renal.

As for `CC1C=CC(C(N)C(=O)O)O1` (centres undefined), the TGI in the experiment on SK-MEL-2 melanoma, in the experiment on K-562 leukemia, in the experiment with ACHN renal, with SN12C renal, in the experiment on SNB-19 CNS and in the experiment with M14 melanoma was greater than 100 µM each time. In addition, the TGI in the experiment with HOP-62 NSCLC, in the experiment with CAKI-1 renal and with SNB-75 CNS was greater than 100 µM in each case.

`CCOC(=N)CC(=O)Nc1ccccc1`: the TGI is greater than 31.6 µM with SK-MEL-2 melanoma; greater than 31.6 µM in the experiment with K-562 leukemia; greater than 46.4 µM in the experiment with ACHN renal; greater than 46.4 µM with SN12C renal; greater than 100 µM in the experiment on SNB-19 CNS; greater than 46.4 µM in the experiment on M14 melanoma. The TGI in the experiment with HOP-62 NSCLC was greater than 46.4 µM; in the experiment on CAKI-1 renal, greater than 100 µM; in the experiment with SNB-75 CNS, greater than 46.4 µM.

For `COc1cc(/C=C(\NC(=O)c2ccccc2)c2nc3ncncc3[nH]2)cc(OC)c1OC`, the TGI in the experiment with SK-MEL-2 melanoma, with K-562 leukemia, in the experiment on ACHN renal, in the experiment on SN12C renal, with SNB-19 CNS and in the experiment on M14 melanoma was greater than 100 µM each time. Besides, in the experiment with CAKI-1 renal, the TGI is greater than 100 µM.

For the molecule `CC(C)COC1Sc2ccccc2S1`, the TGI was determined as 30 µM with ACHN renal; 36.2 µM with SN12C renal; 32.8 µM in the experiment on SNB-19 CNS; 52.4 µM in the experiment with M14 melanoma; 41.3 µM with HOP-62 NSCLC; 52.4 µM in the experiment with CAKI-1 renal. Also, the TGI in the experiment with SNB-75 CNS worked out at 6.36 µM.

As to `COCCc1n(Cc2ccc3ccccc3c2)c2ccccc2[n+]1Cc1ccc2ccccc2c1`, the GI50 was 1.06 µM with DU-145 prostate, 1.61 µM in the experiment with ACHN renal and 1.26 µM in the experiment on HOP-62 NSCLC. For the same molecule, the TGI was found to be 2.33 µM in the experiment with DU-145 prostate, 2.99 µM in the experiment with ACHN renal and 2.73 µM in the experiment on HOP-62 NSCLC.

On to `COc1ccc(/C=C/C(=O)c2c(-c3ccccc3)nn(C)c(=O)c2N2CCOCC2)cc1`, for which the TGI with K-562 leukemia, with ACHN renal, in the experiment on SN12C renal, with SNB-19 CNS, in the experiment with M14 melanoma and in the experiment with CAKI-1 renal was greater than 100 µM in each case.

As for `Nc1nc2c(-c3ccc([N+](=O)[O-])cc3)nnn2c2ccccc12`, the TGI in the experiment with SK-MEL-2 melanoma, in the experiment on K-562 leukemia, in the experiment with ACHN renal, with SN12C renal, in the experiment on SNB-19 CNS and with M14 melanoma was greater than 100 µM throughout. Besides, the TGI with HOP-62 NSCLC and in the experiment with CAKI-1 renal was greater than 100 µM in each case.

Take `c1ccc2c(c1)Cc1c(Cc3csc4ccccc34)ccc3cccc-2c13`: the TGI in the experiment on SK-MEL-2 melanoma, in the experiment with K-562 leukemia, in the experiment with ACHN renal, in the experiment on SN12C renal, with SNB-19 CNS and in the experiment on M14 melanoma was greater than 100 µM in each case. The TGI with HOP-62 NSCLC and in the experiment on SNB-75 CNS was greater than 100 µM each time.

Values taken from PubChem BioAssay (NCI).
